One test relates to db/db mice. The test can be described thus: Healing of skin ulcers (full-thickness back wound) in db/db mice. It is filed as in vivo, mouse. The conditions noted are these: for Wound healing rate: db/db mice, topical, polypeptide 30 μg/cm^2 qd, GeneTime 40 IU/cm^2 qd, Kangfuxin Ye 40 μL/mouse Bid, Mean ± SD, n = 10. The procedure: Experimental animals: Diabetic model mice (db/db male mice), normal mice (m/m male mice), SPF grade, 8-10 weeks of age, weighting 40-50 g, from Changzhou Cavens Experimental Animal Co., Ltd., with the experimental animal production license number of SCXK (Su) 2016-0010, and the experimental animal use license number of SYXK (Shanghai) 2020-0038.
Experimental method: After the blood glucose of the db/db mice reached the standard (blood glucose after fasting for 4 h>16.7 mmol/L), the mice were randomly divided into 5 groups with 10 mice in each group, namely, normal control group, model control group, Kangfuxin Ye group (40 μL per mouse), GeneTime group (40 IU/cm^2), the subject polypeptide group (30 μg/cm^2). After the mice were anesthetized with isoflurane inhalation, a circular wound with a diameter of about 12 mm was cut on the back of the mice with a cutter from the full layers of the skin to reach the fascia layer. The wound was photographed and the wound area was recorded as the baseline value (the wound was recorded as Day0). From the next day (Day 1), the animals in each group were administered as required, and all the skin wounds were applied externally. Both the normal control group and the model control group were given 40 μL of normal saline, and the GeneTime group (40 IU/cm^2) was given Recombinant human epidermal growth factor topical solution diluted in 40 μL of normal saline (Shenzhen Watsin Genetech Ltd.), and the subject polypeptide group (30 μg/cm^2) was given the corresponding concentration of the polypeptide prepared by using 40 μL normal saline, once a day; the Kangfuxin Ye group was given 40 μL of Kangfuxin Ye (SICHUAN GOODDOCTOR PANXI PHARMACEUTICAL CO., LTD.), twice a day. Administration was continued every day until the wound was basically healed. The skin wounds were measured and photographed twice a week, the areas of the wounds were calculated with the Image-J software, and the healing of the wounds in each group of animals was observed.

In test [1] the test system is HMEC-1 cells (human microvascular endothelial cells). The test can be described thus: Proliferation of HMEC-1 cells (CCK-8). It is filed as cell-based. As to conditions: 48 hours, 0% serum medium, FIG. 2. How it is done:
Experimental method: Human microvascular endothelial cells (HMEC-1 cells) were cultured in 10% serum medium at 37° C. and 5% CO2, the culture fluid was changed every 1-2 days, and the cell concentration was controlled to be 4*10^6 cells/mL for passaging. The cells were collected and prepared into a concentration of 4*10^4 cells/mL with a serum-free medium, seeded into a 96-well cell culture plate with 100 uL per well, i.e., 4000 cells/well, and cultured at 37° C. and 5% CO2 to be adherent.
The polypeptide was dissolved in PBS solution and prepared into a stock solution with a concentration of 1 mg/mL. The polypeptide stock solution was prepared with 0% serum medium to test concentrations as the experimental groups; in the same manner, recombinant human vascular endothelial growth factor VEGF (100 ng/mL) was prepared and added as positive control; and for the blank control group, the same volume of 0% serum medium without drugs was added. For all the groups, 5 duplicate wells were incubated at 37° C. and 5% CO2 for 48 hours. The CCK-8 was used to detect cell proliferation: serum-free medium containing 10% CCK-8 was added to each well, and absorbances were measured at 450 nm by microplate reader after incubation in an incubator for 2 hours.

Another test concerns SD rats. Put plainly: Healing of acute mechanical skin injuries in rats. It is filed as in vivo, rat. As to conditions: for Wound healing rate: rats, acute mechanical injury, topical once a day, polypeptide 8 μg/cm^2, GeneTime 40 IU/cm^2, Mean ± SD, n = 6. The procedure:
Experimental animals: SD male rats, SPF grade, 6 weeks old, weighing 180-220 g, from Beijing Vital River Laboratory Animal Technology Co., Ltd.; animal license number: SCXK (Beijing) 2016-0006; and certification number: NO.110011210104746538.
Experimental method: SPF grade SD rats were housed in clean and sterilized cages, and were given water and feeds and padding replacement at regular intervals every day. The cultivation was kept at a temperature of 20-26° C. with a humidity of 40%-70%. The rats were kept for one week to adapt to the environment. According to the random grouping method, the animals were divided into 3 groups: model control group (normal saline), GeneTime group (40 IU/cm^2, recombinant human epidermal growth factor topical solution, from Shenzhen Watsin Genetech Ltd.), and subject polypeptide group (8 μg/cm^2), with 6 animals in each group. After the rats were successfully anesthetized by intraperitoneal injection of 3% pentobarbital sodium, the hair at 1 cm from the expected wound edge was cut off, the expected wound area was first disinfected with iodophor, then locally disinfected with 75% alcohol, and a round full layer of skin wound with a diameter of 1.5 cm was made at the middle of the ear line down to 4 cm below the back, near the cervical side, with the spine as the middle line, as deep as the muscular layer. The same sized rubber ring was used to fix the surrounding skin to form an animal model of acute mechanical injury. After modeling, the rats' wounds were exposed to the environment and fed in individual cages. Upon changing dressings, debridement was first performed with iodophor, and then the wound was washed with a sterile normal saline and wiped to dryness. Rats in each group were given 40 μL of corresponding drug solution by locally applying to the wound once a day periodically. On Days 0, 3, 7, 10 and 14 of administration, the wounds of each group of rats were photographed, the areas of the wounds were calculated with image analysis software (Image J), and the wound healing rates were calculated according to the formula.

Ends that are not written are not given here.

Turning to PAAEPVPL [polypeptide], the Wound healing rate was 0.00 ± 0.00% in the test with db/db mice (Day 0 (baseline)); −4.66 ± 17.55% with db/db mice (Day 3); 13.06 ± 17.65% in the test with db/db mice (Day 7); 40.91 ± 16.33% in the test with db/db mice (Day 10); 89.44 ± 8.99 % with db/db mice (Day 14); 0.00 ± 0.00% in the test with SD rats (Day 0 (baseline)). Moreover, the Wound healing rate with SD rats (Day 3) was −23.77 ± 6.16%; in the test on SD rats (Day 7), −10.78 ± 7.90%; in the test on SD rats (Day 10) it was 18.90 ± 17.63%; in the test on SD rats (Day 14), 88.42 ± 4.57 %. In addition, the “Skin wound healing in diabetic mice (statement in words)” value in the test on db/db mice (day 14, 30 μg/cm^2 qd, vs model control) is “significantly promote skin wound healing”. The “Proliferation-promoting effect on the HMEC-1 cell line” value in test [1] is “significant effect of promoting proliferation”. Also, the “Wound healing after mechanical skin injury in rats (statement in words)” value with SD rats (Day 14, 8 μg/cm^2, vs model control) is reported as “significant promotion of wound healing”.

Values taken from patent publication US20250057910A1, “Application of Polypeptide in Preparation of Product for Preventing or Treating Skin Injury Diseases” (Sichuan Gooddoctor Panxi Pharmaceutical Co., Ltd., priority 2021, published 2025).
